# US20020045638A1, “Method of treating estrogen receptor positive carcinoma” (priority 2000, published 2002)
# Experiments:
# [1] = tested on: BG-1 human ovarian cancer cells; assay: Inhibition of growth of BG-1 ovarian cancer cells (MTT), with MacSynergy II synergy analysis; type: cell-based; details: for Percent Inhibition: Table G, CCI-779 0 nM
# Protocol: In these test procedures, rapamycin 42-ester with 3-hydroxy-2-(hydroxymethyl)-2-methylpropionic acid was used as a representative rapamycin, and 2-(4-hydroxy-phenyl)-3-methyl-1-[4-(2-piperdin-1-yl-ethoxy)-benzyl-1 H-indol-5-ol, raloxifene, and 4-hydroxytamoxifen were used as representative antiestrogens.
# One day before the experiment, cells were plated in 96-well plates at a cell density of 2,500 cells/well in IMEM medium supplemented with 10% fetal bovine serum. The next day, cells were treated with various concentrations of antiestrogen and rapamycin 42-ester with 3-hydroxy-2-(hydroxymethyl)-2-methylpropionic acid (referred to as CCI-779 in the tables below). Five or six-days later, cell growth was monitored.
# MCF-7 tumors = assay: Growth of MCF-7 breast carcinoma implanted in nude mice; type: in vivo; details: for Tumor size (mean ± standard error): 20 mg/kg ERA-923 PO qd days 1-35
# Protocol: In the third standard pharmacological test procedure, mice implanted with MCF-7 tumors were treated with a combination of ERA-923 and CCI-779. […] ERA-923 was dissolved in 1% Tween 80 and 0.9% NaCl Injection USP. Drug was aliquoted into daily doses using 10.0 ml glass bottles and frozen at −20° C. until needed. CCI-779 was made fresh using a 5% ETOH, 4.9% Phosal and 0.1% Tween 80 in Sterile Water. 0.2 ml of each drug was given orally starting the day after tumor implantation. ERA 923 was given daily for the duration of the experiment and CCI-779 was given every other day for the first 10 days. The control vehicles were given on the same regime as the drugs. MCF7 cells were cultured in IMEM containing 5% Fetal Bovine Serum with passages varying from 2-20. After trypsinization tumors were resuspended in IMEM with 2% Serum at a 1:1 ratio with Matrigel. 10 million cells were injected subcutaneously into the mammary tissue of each mouse using a 1.0 ml tuberculin syringe with a 23 3/4 gauge needle. Five to six week old female ovariectomized athymic nu/nu mice (Charles River Labs: Wilmington, Mass.) weighing from 20.0-23.0 g were used. The animals were housed 5 to a cage in a Microisolator Open Rack System (Lab Products: Maywood, N.J.). Each mouse received a 17β-Estradiol pellet (0.72 mg/pellet-60 day release). The pellets were injected with a 10 gauge trochar into the lateral side of the neck between the ear and the shoulder 1-2 weeks prior to tumor injection. Control groups were 15 mice/vehicle whereas the drug groups were 10 mice/drug. Tumors were measured weekly by means of solar calipers (Cole-Parmer Instuments: Vernon Hills, Ill.) and tumor weights were estimated from tumor diameters by the following formula:
# Tumor weight (mg)=tumor length (mm)×tumor width (mm)^2/2.
# Mice were euthanized 36 days after tumor injection by CO2 inhalation. […] Nude mice bearing MCF-7 tumors were given ERA-923, CCI-779 or the combination of both drugs.
# [2] = tested on: MCF-7 human breast cancer cells; assay: Inhibition of growth of MCF-7 breast cancer cells (MTT), with MacSynergy II synergy analysis;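 note: cells treated five or six days with single agents or combinations, growth read by MTT, synergy surface equals observed % inhibition minus Bliss additive prediction, values under 0% signal antagonism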
# [3] = BG-1, antiestrogen in combination with CCI-779, MacSynergy II, Bliss independence model
# [4] = MCF-7, antiestrogen in combination with CCI-779, MacSynergy II, Bliss independence model
structure (smiles),measurement,setting,value
Cc1c(-c2ccc(O)cc2)n(Cc2ccc(OCCN3CCCCC3)cc2)c2ccc(O)cc12 [ERA-923],Antagonsim,[1]; [3],0.0 μM^2%
same,Synergy,[1]; [3],25.9 μM^2%
same,Percent Inhibition,[1]; ERA-923 0.25 nM,14.72%
same,Percent Inhibition,[1]; ERA-923 0.5 nM,24.14%
same,Percent Inhibition,[1]; ERA-923 1 nM,48.93%
same,Percent Inhibition,[1]; ERA-923 2 nM,57.19%
same,Percent Inhibition,[1]; ERA-923 3 nM,72.54%
same,Percent Inhibition,[1]; ERA-923 4 nM,80.34%
same,Percent Inhibition,[1]; ERA-923 5 nM,75.94%
same,Tumor size (mean ± standard error),MCF-7 tumors; day 14 after tumor implantation,480 ± 91 mg
same,Tumor size (mean ± standard error),MCF-7 tumors; day 21 after tumor implantation,679 ± 127 mg
same,Tumor size (mean ± standard error),MCF-7 tumors; day 28 after tumor implantation,842 ± 163 mg
same,Tumor size (mean ± standard error),MCF-7 tumors; day 36 after tumor implantation,993 ± 197 mg
same,inhibition of tumor growth,"MCF-7 tumors; nude mice bearing MCF-7 tumors, growth inhibition=experimental value−200 (baseline)/control value −200",approximately 35%
same,increase of growth-inhibitory effect as estimated by the IC50,[2]; ERA-923 in the presence of non-inhibitory concentrations of CCI-779,approximately 10 fold
same,Antagonsim,[2]; [4],0.0 μM^2%
same,Synergy,[2]; [4],138.0 μM^2%
same,Percent Inhibition,"[2]; Table A, CCI-779 0 nM, ERA-923 0.25 nM",9%
same,Percent Inhibition,"[2]; Table A, CCI-779 0 nM, ERA-923 0.5 nM",7.59%
same,Percent Inhibition,"[2]; Table A, CCI-779 0 nM, ERA-923 1 nM",37.56%
same,Percent Inhibition,"[2]; Table A, CCI-779 0 nM, ERA-923 2 nM",54.65%
same,Percent Inhibition,"[2]; Table A, CCI-779 0 nM, ERA-923 3 nM",59.39%
same,Percent Inhibition,"[2]; Table A, CCI-779 0 nM, ERA-923 4 nM",60.04%
same,Percent Inhibition,"[2]; Table A, CCI-779 0 nM, ERA-923 5 nM",61.12%
same,Percent Inhibition,"[2]; Table D, ERA-923 0 nM + ERA-923 0.25 nM",−0.78%
same,Percent Inhibition,"[2]; Table D, ERA-923 0 nM + ERA-923 0.5 nM",26.09%
same,Percent Inhibition,"[2]; Table D, ERA-923 0 nM + ERA-923 1 nM",54.91%
same,Percent Inhibition,"[2]; Table D, ERA-923 0 nM + ERA-923 2 nM",71.82%
same,Percent Inhibition,"[2]; Table D, ERA-923 0 nM + ERA-923 3 nM",87.65%
same,Percent Inhibition,"[2]; Table D, ERA-923 0 nM + ERA-923 4 nM",78.72%
same,Percent Inhibition,"[2]; Table D, ERA-923 0 nM + ERA-923 5 nM",79.25%
same,Percent Inhibition,"[2]; Table D, ERA-923 0.25 nM + ERA-923 0 nM",6.69%
same,Percent Inhibition,"[2]; Table D, ERA-923 0.25 nM + ERA-923 0.25 nM",35.93%
same,Percent Inhibition,"[2]; Table D, ERA-923 0.25 nM + ERA-923 0.5 nM",56.79%
same,Percent Inhibition,"[2]; Table D, ERA-923 0.25 nM + ERA-923 1 nM",64.27%
same,Percent Inhibition,"[2]; Table D, ERA-923 0.25 nM + ERA-923 2 nM",76.33%
same,Percent Inhibition,"[2]; Table D, ERA-923 0.25 nM + ERA-923 3 nM",78.99%
same,Percent Inhibition,"[2]; Table D, ERA-923 0.25 nM + ERA-923 4 nM",78.39%
same,Percent Inhibition,"[2]; Table D, ERA-923 0.25 nM + ERA-923 5 nM",79.68%
same,Percent Inhibition,"[2]; Table D, ERA-923 0.5 nM + ERA-923 0 nM",8.17%
same,Percent Inhibition,"[2]; Table D, ERA-923 0.5 nM + ERA-923 0.25 nM",53.61%
same,Percent Inhibition,"[2]; Table D, ERA-923 0.5 nM + ERA-923 0.5 nM",63.08%
same,Percent Inhibition,"[2]; Table D, ERA-923 0.5 nM + ERA-923 1 nM",68.58%
same,Percent Inhibition,"[2]; Table D, ERA-923 0.5 nM + ERA-923 2 nM",73.71%
same,Percent Inhibition,"[2]; Table D, ERA-923 0.5 nM + ERA-923 3 nM",81.21%
same,Percent Inhibition,"[2]; Table D, ERA-923 0.5 nM + ERA-923 4 nM",79.57%
same,Percent Inhibition,"[2]; Table D, ERA-923 0.5 nM + ERA-923 5 nM",81.43%
same,Percent Inhibition,"[2]; Table D, ERA-923 1 nM + ERA-923 0 nM",42.1%
same,Percent Inhibition,"[2]; Table D, ERA-923 1 nM + ERA-923 0.25 nM",66.83%
same,Percent Inhibition,"[2]; Table D, ERA-923 1 nM + ERA-923 0.5 nM",75.09%
same,Percent Inhibition,"[2]; Table D, ERA-923 1 nM + ERA-923 1 nM",74.24%
same,Percent Inhibition,"[2]; Table D, ERA-923 1 nM + ERA-923 2 nM",74.07%
same,Percent Inhibition,"[2]; Table D, ERA-923 1 nM + ERA-923 3 nM",76.56%
same,Percent Inhibition,"[2]; Table D, ERA-923 1 nM + ERA-923 4 nM",80.45%
same,Percent Inhibition,"[2]; Table D, ERA-923 1 nM + ERA-923 5 nM",82.97%
same,Percent Inhibition,"[2]; Table D, ERA-923 2 nM + ERA-923 0 nM",67.81%
same,Percent Inhibition,"[2]; Table D, ERA-923 2 nM + ERA-923 0.25 nM",74.73%
same,Percent Inhibition,"[2]; Table D, ERA-923 2 nM + ERA-923 0.5 nM",75.08%
same,Percent Inhibition,"[2]; Table D, ERA-923 2 nM + ERA-923 1 nM",75.36%
same,Percent Inhibition,"[2]; Table D, ERA-923 2 nM + ERA-923 2 nM",75.03%
same,Percent Inhibition,"[2]; Table D, ERA-923 2 nM + ERA-923 3 nM",78.5%
same,Percent Inhibition,"[2]; Table D, ERA-923 2 nM + ERA-923 4 nM",81.23%
same,Percent Inhibition,"[2]; Table D, ERA-923 2 nM + ERA-923 5 nM",82.02%
same,Percent Inhibition,"[2]; Table D, ERA-923 3 nM + ERA-923 0 nM",52.23%
same,Percent Inhibition,"[2]; Table D, ERA-923 3 nM + ERA-923 0.25 nM",75.24%
same,Percent Inhibition,"[2]; Table D, ERA-923 3 nM + ERA-923 0.5 nM",76.06%
same,Percent Inhibition,"[2]; Table D, ERA-923 3 nM + ERA-923 1 nM",77.68%
same,Percent Inhibition,"[2]; Table D, ERA-923 3 nM + ERA-923 2 nM",76.67%
same,Percent Inhibition,"[2]; Table D, ERA-923 3 nM + ERA-923 3 nM",81.51%
same,Percent Inhibition,"[2]; Table D, ERA-923 3 nM + ERA-923 4 nM",83.2%
same,Percent Inhibition,"[2]; Table D, ERA-923 3 nM + ERA-923 5 nM",82.87%
same,Percent Inhibition,"[2]; Table D, ERA-923 4 nM + ERA-923 0 nM",74.49%
same,Percent Inhibition,"[2]; Table D, ERA-923 4 nM + ERA-923 0.25 nM",79.39%
same,Percent Inhibition,"[2]; Table D, ERA-923 4 nM + ERA-923 0.5 nM",80.92%
same,Percent Inhibition,"[2]; Table D, ERA-923 4 nM + ERA-923 1 nM",77.2%
same,Percent Inhibition,"[2]; Table D, ERA-923 4 nM + ERA-923 2 nM",78.2%
same,Percent Inhibition,"[2]; Table D, ERA-923 4 nM + ERA-923 3 nM",79.28%
same,Percent Inhibition,"[2]; Table D, ERA-923 4 nM + ERA-923 4 nM",83.28%
same,Percent Inhibition,"[2]; Table D, ERA-923 4 nM + ERA-923 5 nM",85.92%
